Data as given in US10125100B2, “Kinase inhibitors” (Respivert Limited, priority 2014, dated 2018).
In brackets after ≈: the same amount, converted by molar mass. Structures can show the parent of a compound that is named as a salt.

Key:
[1] = Solubility in fasted-state simulated colonic fluid (FaSSCoF); type: physicochemical; conditions: for pH 6.5 FaSSCoF Solubility, Run 1 / pH 6.5 FaSSCoF Solubility, Run 2: 24 h; for solubility thermodynamic at 24 h: 25 °C, pH 6.5, fassgf or other biorelevant, thermodynamic from solid
Experimental: The solubilities of compounds of the invention in FaSSCoF at pH 6.5 are determined using a modification of a previously-reported procedure (Vertzoni, M., et al. Pharm. Res. 2010, 27, 2187-2196). In place of the bile salt extract employed in the original procedure (which extract is no longer available), the modified procedure uses a mixture of sodium taurochlorate (0.15 g), glycocholic acid (0.15 g), ursodeoxycholic acid (0.05 g), cholic acid (0.05 g), and glycodeoxycholic acid (0.05 g). These five bile acids are ground together with a mortar and pestle to produce a fine white powder that is incorporated into the FaSSCoF, as outlined below.
Tris(hydroxymethyl)aminomethane (Tris; 0.275 g) and maleic acid (0.44 g) are dissolved in water (35 mL) to give a solution whose pH is adjusted to 6.5 by treatment with 0.5M NaOH (ca. 12 mL). The solution is then made up to 50 mL with water. A portion of this Tris/maleate buffer solution (ca. 25 mL) is added to a 0.5 L round-bottomed flask, before being treated with 0.00565 g of the bile acid mixture described above. Solutions of phosphatidylcholine (0.0111 g) in DCM (0.15 mL) and palmitic acid (0.0013 g) in DCM (0.15 mL) are added, then the organic solvent is evaporated off under reduced pressure at 40° C. until a clear solution, with no perceptible DCM odour, is achieved. The volume of the evaporated solution is adjusted to 50 mL by addition of the remainder of Tris/maleate buffer, then BSA (0.115 g) is added, before being dissolved by gentle agitation.
Test compounds are suspended in the pH 6.5 FaSSCoF medium to give a maximum final concentration of 2-10 mg/mL. The suspensions are equilibrated at 25° C. for 24 h, before being filtered through a glass fibre C filter. The filtrates are then diluted as appropriate for injection and quantification by HPLC with reference to a standard. Different volumes of the standard, diluted and undiluted sample solutions are injected and the solubilities are calculated using the peak areas determined by integration of the peak found at the same retention time as the principal peak in the standard injection.

[2] = Hydrolytic stability study; type: physicochemical; conditions: DMSO/water (3:1); for % Parent Remaining: 1 mg/mL
Experimental: Chemical stability of compounds of the invention was assessed in a mixture of DMSO and water (3:1) at a test compound concentration of 1 mg/mL.
General HPLC Procedure • Agilent, Waters X-Select C18, 2.5 μm, 4.6×30 mm column, 4 min method, 5-95% MeCN/water (0.1% formic acid). Flow rate 2.5 mL/min. Column Oven Temperature 40° C. Detection 254 nm.
Sample Preparation • A 1.0 mg sample of test compound was dissolved in 750 μL of DMSO. Water (250 μL) was added slowly, ensuring no precipitation occurred.
Recording Stability • A 50 μL aliquot of the test solution was removed and analysed in duplicate by 5 μL HPLC injections. The peak area for the test compound was recorded following manual integration of the corresponding UV trace. • The test solution was heated to 60° C., with stirring, and 50 μL aliquots removed for HPLC analysis at 5 and 24 h timepoints.

Jurkat cells = assay: (r) Cell cytotoxicity assay; type: cell-based, human; conditions: 24 hours
Outline: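 Jurkat cells (1×10^5/well, RPMI + 10% FBS) exposed to compound at 20, 5 or 1 μg/mL final (1.0% DMSO control) for 24 h at 37° C., 5% CO2. Then stained with 7.5 μg/mL propidium iodide for 15 min. % viability = PI-negative cells by flow cytometry, normalized to DMSO.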

For `COc1cc(Nc2cc(Oc3ccc(NC(=O)Nc4cc(C(C)(C)C)cc(NS(C)(=O)=O)c4OC)c4ccccc34)ccn2)ccc1P(C)(=O)O` [44 (ammonium salt), (4-((4-((4-(3-(5-(tert-Butyl)-2-methoxy-3-(methylsulfonamido)phenyl)ureido)naphthalen-1-yl)oxy)pyridin-2-yl)amino)-2-methoxyphenyl)(methyl)phosphinic acid], which “pH 6.5 FaSSCoF Solubility, Run 1” value [1] is on record?
Its value is over 2.4 mg/mL.

And the “pH 6.5 FaSSCoF Solubility, Run 2” value [1]?
Its value is over 2.4 mg/mL.

What does the source list for `COc1cc(Nc2cc(Oc3ccc(NC(=O)Nc4cc(C(C)(C)C)cc(NS(C)(=O)=O)c4OC)c4ccccc34)ccn2)ccc1P(C)(=O)O` [44 (sodium salt), (4-((4-((4-(3-(5-(tert-Butyl)-2-methoxy-3-(methylsulfonamido)phenyl)ureido)naphthalen-1-yl)oxy)pyridin-2-yl)amino)-2-methoxyphenyl)(methyl)phosphinic acid]?
pH 6.5 FaSSCoF Solubility, Run 1 [1]: >7.6 mg/mL; pH 6.5 FaSSCoF Solubility, Run 2 [1]: >5.5 mg/mL

With `COc1cc(Nc2cc(Oc3ccc(NC(=O)Nc4cc(C(C)(C)C)cc(NS(C)(=O)=O)c4OC)c4ccccc34)ccn2)ccc1C(=O)O` [1 (sodium salt), 4-((4-((4-(3-(5-(tert-Butyl)-2-methoxy-3-(methylsulfonamido)phenyl)ureido)naphthalen-1-yl)oxy)pyridin-2-yl)amino)-2-methoxybenzoic acid] as the molecule, how does the “pH 6.5 FaSSCoF Solubility, Run 2” value [1] read?
Its value is 0.032 mg/mL.

What does the source list for `C#Cc1cc(Nc2nccc(Oc3ccc(NC(=O)Nc4cc(C(C)C)nn4-c4ccc(C)cc4)c4ccccc34)n2)cc(C(=O)NCCN2CCOCC2)c1` [Reference Compound B, 3-ethynyl-5-((4-((4-(3-(3-isopropyl-1-(p-tolyl)-1H-pyrazol-5-yl)ureido)naphthalen-1-yl)oxy)pyrimidin-2-yl)amino)-N-(2-morpholinoethyl)benzamide, reference compound]?
% Parent Remaining ([2]; 0 min): 100%; % Parent Remaining ([2]; 60° C., 297 min): 79%; % Parent Remaining ([2]; 60° C., 1429 min): 18%; decomposition under the conditions of the experiment ([2]; 60° C.): substantial decomposition

Which solubility thermodynamic at 24 h [1] does the source give for `COc1cc(Nc2cc(Oc3ccc(NC(=O)Nc4cc(C(C)(C)C)cc(NS(C)(=O)=O)c4OC)c4ccccc34)ccn2)ccc1C(=O)NCCOCCOCCOP(=O)(O)O` [19 (sodium salt), 2-(2-(2-(4-((4-((4-(3-(5-(tert-Butyl)-2-methoxy-3-(methylsulfonamido)phenyl)ureido)-naphthalen-1-yl)oxy)pyridin-2-yl)amino)-2-methoxybenzamido)ethoxy)ethoxy)ethyl dihydrogen phosphate] here?
Its solubility thermodynamic at 24 h is over 4700 µg/mL.

And the “pH 6.5 FaSSCoF Solubility, Run 2” value [1]?
The value was over 4.7 mg/mL.

Which “pH 6.5 FaSSCoF Solubility, Run 2” value [1] does the source give for `COc1cc(Nc2cc(Oc3ccc(NC(=O)Nc4cc(C(C)(C)C)cc(NS(C)(=O)=O)c4OC)c4ccccc34)ccn2)ccc1C(=O)NCCNC(=O)CCC(=O)O` [17(cd) (hydrochloride salt), 4-((2-(4-((4-((4-(3-(5-(tert-Butyl)-2-methoxy-3-(methylsulfonamido)phenyl)ureido)-naphthalen-1-yl)oxy)pyridin-2-yl)amino)-2-methoxybenzamido)ethyl)amino)-4-oxobutanoic acid] here?
The value was 0.049 mg/mL.

Which results are given for `COc1cc(Nc2cc(Oc3ccc(NC(=O)Nc4cc(NS(C)(=O)=O)cc(C(C)(C)C)c4)c4ccccc34)ccn2)ccc1C(=O)NCCCN1CCN(C)CC1` [17(bp), 4-((4-((4-(3-(3-(tert-Butyl)-5-(methylsulfonamido)phenyl)ureido)naphthalen-1-yl)oxy)pyridin-2-yl)amino)-2-methoxy-N-(3-(4-methylpiperazin-1-yl)propyl)benzamide]?
% Viability at 1 μg/mL (Jurkat cells): 93.2%; % Viability at 5 μg/mL (Jurkat cells): 41.0%; % Viability at 20 μg/mL (Jurkat cells): 2.0%; pH 6.5 FaSSCoF Solubility, Run 2 [1]: 0.024 mg/mL

What does the source list for `COc1cc(Nc2cc(Oc3ccc(NC(=O)Nc4cc(C(C)(C)C)cc(NS(C)(=O)=O)c4OC)c4ccccc34)ccn2)ccc1C(=O)N1C[C@H](O)[C@@H](O)[C@H](O)[C@H]1CO` [17(ci), N-(5-(tert-Butyl)-2-methoxy-3-(3-(4-((2-((3-methoxy-4-((2R,3R,4R,5S)-3,4,5-trihydroxy-2-(hydroxymethyl)piperidine-1-carbonyl)phenyl)amino)pyridin-4-yl)oxy)naphthalen-1-yl)ureido)phenyl)methanesulfonamide]?
solubility thermodynamic at 24 h [1]: 6 µg/mL (≈ 7.1 µM); pH 6.5 FaSSCoF Solubility, Run 2 [1]: 0.006 mg/mL

With `COc1cc(Nc2cc(Oc3ccc(NC(=O)Nc4cc(C(C)(C)C)cc(NS(C)(=O)=O)c4OC)c4ccccc34)ccn2)ccc1C(=O)NCC(=O)O` [17(ar) (hydrochloride salt), 2-(4-((4-((4-(3-(5-(tert-Butyl)-2-methoxy-3-(methylsulfonamido)phenyl)ureido)naphthalen-1-yl)oxy)pyridin-2-yl)amino)-2-methoxybenzamido)acetic acid] as the molecule, how does the “pH 6.5 FaSSCoF Solubility, Run 2” value [1] read?
Its value is 0.198 mg/mL.

Which “% Viability at 1 μg/mL” value (Jurkat cells) does the source give for `COc1cc(Nc2nccc(Oc3ccc(NC(=O)Nc4cc(C(C)(C)C)cc(NS(C)(=O)=O)c4OC)c4ccccc34)n2)ccc1C(=O)NCCC1CCN(C)CC1` [17(an), 4-((4-((4-(3-(5-(tert-butyl)-2-methoxy-3-(methylsulfonamido)phenyl)ureido)naphthalen-1-yl)oxy)pyrimidin-2-yl)amino)-2-methoxy-N-(2-(1-methylpiperidin-4-yl)ethyl)benzamide] here?
Its value is 97.9%.

What about the “% Viability at 5 μg/mL” value (Jurkat cells) of the same molecule?
Its value is 37.9%.

What about the “% Viability at 20 μg/mL” value (Jurkat cells) of the same molecule?
Its value is 1.1%.

And the “pH 6.5 FaSSCoF Solubility, Run 2” value [1]?
The value was 0.049 mg/mL.

Which “pH 6.5 FaSSCoF Solubility, Run 2” value [1] does the source give for `COc1cc(Nc2cc(Oc3ccc(NC(=O)Nc4cc(C(C)(C)C)cc(NS(C)(=O)=O)c4OC)c4ccccc34)ccn2)ccc1C(=O)NCCC(=O)O` [17(ay) (hydrochloride salt), 3-(4-((4-((4-(3-(5-(tert-Butyl)-2-methoxy-3-(methylsulfonamido)phenyl)ureido)-naphthalen-1-yl)oxy)pyridin-2-yl)amino)-2-methoxybenzamido)propanoic acid] here?
Its value is 0.028 mg/mL.

Which results are given for `COc1cc(Nc2cc(Oc3ccc(NC(=O)Nc4cc(C(C)(C)C)cc(NS(C)(=O)=O)c4OC)c4ccccc34)ccn2)cc(OC)c1C(=O)NCCN1CCN(CCO)CC1` [Example 37, 4-((4-((4-(3-(5-(tert-Butyl)-2-methoxy-3-(methylsulfonamido)phenyl)ureido)naphthalen-1-yl)oxy)pyridin-2-yl)amino)-N-(2-(4-(2-hydroxyethyl)piperazin-1-yl)ethyl)-2,6-dimethoxybenzamide]?
% Viability at 1 μg/mL (Jurkat cells): 52.9%; % Viability at 5 μg/mL (Jurkat cells): 55.8%; % Viability at 20 μg/mL (Jurkat cells): 28.9%; pH 6.5 FaSSCoF Solubility, Run 2 [1]: 0.024 mg/mL
